Reference: article PMC8039949, “A novel small-molecule PROTAC selectively promotes tau clearance to improve cognitive functions in Alzheimer-like models” (Theranostics, 2021)

Tested on: tau
Assay: Multiple-doses subcutaneous administration in hTau transgenic mice, brain tau
Type: in vivo, mouse
Conditions: 12 m-old hTau transgenic mice, subcutaneous 3 mg/kg once every 6 days, 5 times
Description: For brain surgery and stereotaxic cerebroventricular drug delivery, the mice were placed in a stereotaxic apparatus and anesthetized with 2% isoflurane (RWD Life Science, R510-22) through a nose cone (300-500 mL/min, RWD Life Science, China, R500). The scalp was incised along the midline between the ears after the mice were sterilized with iodophors and 75% (vol/vol) alcohol. The holes were drilled stereotaxically in the skull at a cerebroventricular location (posterior 0.22 mm, lateral 0.9 mm, and ventral 2.3 mm relative to bregma). Using a microinjection system (Shenzhen RWD Life Technology Co., Ltd; RWD 69100), C004019 (5 μL, 200 μM) was infused at a rate of 0.5 μL/min. The needle was kept in place for 10 min before withdrawal. After the skin was sutured, the mice were placed on a heater for analepsia. For subcutaneous injection, C004019 was diluted with 20% HP-β-CD and injected under the skin on the back neck to reach a final concentration of 3 mg/kg (low dose) or 15 mg/kg (high dose).
The cells or hippocampal/cortex tissues were homogenized for ~ 30 min on ice in buffer [50 mM Tris·HCl pH 7.4-7.5, 100 mM NaCl, 1% (vol/vol) Triton X-100, 5 mM EDTA, 1:100 PMSF, 1:1,000 protease inhibitor cocktail containing 4-(2-Aminoethyl)-benzenesulfonyl fluoride hydrochloride, aprotinin, bestatin, leupeptin, E-64, and pepstatin A stored at 4 °C], and then centrifuged at 12,000 × g at 4 °C for 20 min. The supernatant was collected and the protein levels were analyzed using bicinchoninic acid (BCA, KF016, Sigma-Aldrich) by following the manufacturer's instruction (served as soluble protein). The pellet was further incubated with 8% (wt/vol) SDS buffer at 4 °C and then treated by ultrasonic wave to reach a complete resuspension. The suspension was spun (18,000 × g, 4 °C for 20 min) and the supernatant collected (served as insoluble fraction). The supernatant of different faction was respectively mixed with loading buffer (3:1, vol/vol) containing 200 mM Tris-HCl, pH 6.8, 8% SDS, 40% glycerol, and boiled for 10 min. […] Immunoreactive bands were quantitatively analyzed by Image J2x software. […]

Q: For `CC(=O)N1CCCN(c2nc(NCCc3cccs3)nc(N(C)CC(=O)NCCOCCOCCOCC(=O)N[C@H](C(=O)N3C[C@H](O)C[C@H]3C(=O)NCc3ccc(-c4scnc4C)cc3)C(C)(C)C)n2)CC1` [C004019], which “p-tau and tau aggregation (HT7, AT8 immunohistochemistry, Thioflavin S staining)” value is on record?
A: Reduction of p-tau and tau aggregation

Q: What about the “soluble and insoluble tau in cortex extracts” value (Western blotting) of the same molecule?
A: could reduce both soluble and insoluble tau

Q: What about the “total and p-tau levels in hippocampal extracts” value (Western blotting) of the same molecule?
A: significantly reduced total and p-tau levels
